Results reported in PubChem BioAssay (NCI).
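In this assay, cells in 96-well plates receive the compound at five concentrations for 48 hours. Endpoints are linearly interpolated between the surrounding concentrations. Definition used: TGI = concentration required for complete inhibition of growth.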

What was measured:
Assay in all cases: NCI-60 cell line screen, 48 h
786-0 renal = test system: 786-0 renal
A549 NSCLC = test system: A549 NSCLC
ACHN renal = test system: ACHN renal
CAKI-1 renal = test system: CAKI-1 renal
CCRF-CEM leukemia = test system: CCRF-CEM leukemia
COLO 205 colon = test system: COLO 205 colon
DLD-1 colon = test system: DLD-1 colon
DMS 114 small cell lung = test system: DMS 114 small cell lung
DMS 273 small cell lung = test system: DMS 273 small cell lung
EKVX NSCLC = test system: EKVX NSCLC
HCC-2998 colon = test system: HCC-2998 colon
HCT-116 colon = test system: HCT-116 colon
HCT-15 colon = test system: HCT-15 colon
HOP-18 NSCLC = test system: HOP-18 NSCLC
HOP-62 NSCLC = test system: HOP-62 NSCLC
HOP-92 NSCLC = test system: HOP-92 NSCLC
HT29 colon = test system: HT29 colon
K-562 leukemia = test system: K-562 leukemia
KM12 colon = test system: KM12 colon
KM20L2 colon = test system: KM20L2 colon
LOX IMVI melanoma = test system: LOX IMVI melanoma
LXFL 529 NSCLC = test system: LXFL 529 NSCLC
M14 melanoma = test system: M14 melanoma
MALME-3M melanoma = test system: MALME-3M melanoma
MOLT-4 leukemia = test system: MOLT-4 leukemia
NCI-H226 lung = test system: NCI-H226 lung
NCI-H23 lung = test system: NCI-H23 lung
NCI-H460 lung = test system: NCI-H460 lung
NCI-H522 lung = test system: NCI-H522 lung
OVCAR-3 ovarian = test system: OVCAR-3 ovarian
OVCAR-4 ovarian = test system: OVCAR-4 ovarian
OVCAR-5 ovarian = test system: OVCAR-5 ovarian
OVCAR-8 ovarian = test system: OVCAR-8 ovarian
RPMI-8226 leukemia = test system: RPMI-8226 leukemia
RXF 393 renal = test system: RXF 393 renal
SF-268 CNS = test system: SF-268 CNS
SF-295 CNS = test system: SF-295 CNS
SF-539 CNS = test system: SF-539 CNS
SK-MEL-2 melanoma = test system: SK-MEL-2 melanoma
SK-MEL-28 melanoma = test system: SK-MEL-28 melanoma
SK-MEL-5 melanoma = test system: SK-MEL-5 melanoma
SK-OV-3 ovarian = test system: SK-OV-3 ovarian
SN12C renal = test system: SN12C renal
SNB-19 CNS = test system: SNB-19 CNS
SNB-75 CNS = test system: SNB-75 CNS
SNB-78 CNS = test system: SNB-78 CNS
SR leukemia = test system: SR leukemia
SW-620 colon = test system: SW-620 colon
TK-10 renal = test system: TK-10 renal
U251 CNS = test system: U251 CNS
UACC-257 melanoma = test system: UACC-257 melanoma
UACC-62 melanoma = test system: UACC-62 melanoma
UO-31 renal = test system: UO-31 renal
XF 498 CNS = test system: XF 498 CNS

Measured: TGI

CC1(C)OC(=O)C(c2cccs2)C(=O)O1
> 100 µM: all assays above
